Literature values in patent US9890151B2, “3,5-dichloro,4-(3,4-(cyclo-)alkoxyphenyl)- 2-carbonyloxy)ethyl)pyridine derivatives as PDE-4 inhibitors” (CHIESI FARMACEUTICI S.p.A., priority 2014, dated 2018).

[1] = patients with severe disease who have frequent exacerbations and mucus hypersecretion

SMILES: O=C(Nc1c(Cl)cncc1Cl)c1ccc(OC(F)F)c(OCC2CC2)c1 [roflumilast]
- reduction of the numbers of neutrophils in sputum (COPD patients, oral roflumilast given over 4 weeks): 36%
- improvement of FEV 1 [1]: approximately 50 mL
- reduction of exacerbation [1]: about 15%
